Data reported in US6762207B1, “(E)-styryl sulfone anticancer agents” (priority 1999, dated 2004).

Columns and labels:
Assay type in all cases: cell-based
Parameters in all cases: dose or concentration left out as unconfirmed
Conditions in all cases: 96 hours
[1] = system: prostate tumor cell line DU-145; assay: Trypan blue exclusion viability assay, DU145
Experimental: (§1) MCF-7 is estrogen-responsive, while BT-20 is an estrogen-unresponsive cell line. NIH/3T3 and HFL are normal murine and human fibroblasts, respectively. MCF-7, BT-20, DLD-1 and H157 were grown in Dulbecco's modified Eagle's medium (DMEM) containing 10% fetal bovine serum supplemented with penicillin and streptomycin. DU145 was cultured in RPMI with 10% fetal bovine serum containing penicillin and streptomycin. […] All cell cultures were maintained at 37° C. in a humidified atmosphere of 5% CO2. Cells were treated with test compound at 2.5 mM concentration and cell viability was determined after 96 hours by the Trypan blue exclusion method.

[2] = system: colorectal carcinoma cell line DLD-1; assay: Trypan blue exclusion viability assay, DLD-1
Experimental: as §1

[3] = system: non-small cell lung carcinoma cell line H157; assay: Trypan blue exclusion viability assay, H157
Experimental: as §1

[4] = system: breast tumor cell line BT-20; assay: Trypan blue exclusion viability assay, BT20
Experimental: as §1

In the case of `O=S(=O)(/C=C/c1ccccc1C(F)(F)F)Cc1ccc(Br)cc1` [Example 49, (E)-2-trifluoromethylstyryl-4-bromobenzylsulfone], the “Cell death, DU145” value [1] is reported as “+ (5-10%: = +)”, the “Cell death, DLD-1” value [2] is reported as “+ (5-10%: = +)” and the “Cell death, H157” value [3] is reported as “+ (5-10%: = +)”. For the same compound, the “Cell death, BT20” value [4] was “+ (5-10%: = +)”.
For `Cc1ccc(CS(=O)(=O)/C=C/c2ccccc2[N+](=O)[O-])cc1` [Example 57, (E)-2-nitrostyryl-4-methylbenzylsulfone], the “Cell death, DU145” value [1] was “+ (5-10%: = +)”, the “Cell death, DLD-1” value [2] was “+ (5-10%: = +)” and the “Cell death, H157” value [3] was “+ (5-10%: = +)”. For the same compound, the “Cell death, BT20” value [4] was “+ (5-10%: = +)”.
For `O=S(=O)(/C=C/c1ccc(C(F)(F)F)cc1)Cc1ccc(F)cc1` [Example 34, (E)4-trifluoromethylstyryl-4-fluorobenzylsulfone], the “Cell death, DU145” value [1] was “+ (5-10%: = +)”, the “Cell death, DLD-1” value [2] was “+ (5-10%: = +)” and the “Cell death, H157” value [3] was “+ (5-10%: = +)”. For the same compound, the “Cell death, BT20” value [4] was “+ (5-10%: = +)”.
`O=[N+]([O-])c1ccccc1/C=C/S(=O)(=O)Cc1ccc(I)cc1` [Example 25, (E)-2-Nitrostyryl-4-iodobenzylsulfone] was tested, and the “Cell death, DU145” value [1] was “++ (10-15% = ++)”, the “Cell death, DLD-1” value [2] was “++ (10-15% = ++)” and the “Cell death, H157” value [3] was “++ (10-15% = ++)”. The “Cell death, BT20” value [4] was “++ (10-15% = ++)”.
`COc1ccc(CS(=O)(=O)/C=C/c2ccccc2[N+](=O)[O-])cc1` [Example 63, (E)-2-nitrostyryl-4-methoxybenzylsulfone] was tested, and the “Cell death, DU145” value [1] was “+ (5-10%: = +)”, the “Cell death, DLD-1” value [2] was “+ (5-10%: = +)” and the “Cell death, H157” value [3] was “+ (5-10%: = +)”. The “Cell death, BT20” value [4] was “+ (5-10%: = +)”.
For `O=[N+]([O-])c1ccc(/C=C/S(=O)(=O)Cc2ccc(F)cc2)cc1` [Example 31, (E)-4-nitrostyryl-4-fluorobenzylsulfone], the “Cell death, DU145” value [1] was “++++ (50-60% = ++++)”, the “Cell death, DLD-1” value [2] was “++++ (50-60% = ++++)” and the “Cell death, H157” value [3] was “++++ (50-60% = ++++)”. For the same compound, the “Cell death, BT20” value [4] was “++++ (50-60% = ++++)”.
In the case of `O=S(=O)(/C=C/c1ccc(I)cc1)Cc1ccc(Br)cc1` [Example 22, (E)-4-Iodostyryl-4-bromobenzylsulfone], the “Cell death, DU145” value [1] is reported as “++ (10-15% = ++)”, the “Cell death, DLD-1” value [2] is reported as “++ (10-15% = ++)” and the “Cell death, H157” value [3] is reported as “++ (10-15% = ++)”. For the same compound, the “Cell death, BT20” value [4] was “++ (10-15% = ++)”.
For `O=S(=O)(/C=C/c1ccc(Cl)cc1)Cc1ccc(Cl)c(Cl)c1` [Example 7, (E)-4-Chlorostyryl-3,4-dichlorobenzylsulfone], the “Cell death, DU145” value [1] was “− (0% = −)” and the “Cell death, BT20” value [4] was “++ (10-15% = ++)”.
In the case of `O=S(=O)(/C=C/c1cccc(C(F)(F)F)c1)Cc1ccc(F)cc1` [Example 33, (E)-3-trifluoromethylstyryl-4-fluorobenzylsulfone], the “Cell death, DU145” value [1] is reported as “+ (5-10%: = +)”, the “Cell death, DLD-1” value [2] is reported as “+ (5-10%: = +)” and the “Cell death, H157” value [3] is reported as “+ (5-10%: = +)”. For the same compound, the “Cell death, BT20” value [4] was “+ (5-10%: = +)”.
In the case of `O=S(=O)(/C=C/c1ccc(F)cc1C(F)(F)F)Cc1ccc(F)cc1` [Example 35, (E)-2-trifluoromethy-4-fluorostyryl-4-fluorobenzylsulfone], the “Cell death, DU145” value [1] is reported as “+ (5-10%: = +)”, the “Cell death, DLD-1” value [2] is reported as “+ (5-10%: = +)” and the “Cell death, H157” value [3] is reported as “+ (5-10%: = +)”. For the same compound, the “Cell death, BT20” value [4] was “+ (5-10%: = +)”.
In the case of `Cc1ccc(CS(=O)(=O)/C=C/c2ccc(Br)cc2)cc1` [Example 56, (E)-4-bromostyryl-4-methylbenzylsulfone], the “Cell death, DU145” value [1] is reported as “+ (5-10%: = +)”, the “Cell death, DLD-1” value [2] is reported as “+ (5-10%: = +)” and the “Cell death, H157” value [3] is reported as “+ (5-10%: = +)”. For the same compound, the “Cell death, BT20” value [4] was “+ (5-10%: = +)”.
For `N#Cc1ccc(CS(=O)(=O)/C=C/c2cccc([N+](=O)[O-])c2)cc1` [Example 53, (E)-3-nitrostyryl-4-cyanobenzylsulfone], the “Cell death, DU145” value [1] was “+ (5-10%: = +)”, the “Cell death, DLD-1” value [2] was “+ (5-10%: = +)” and the “Cell death, H157” value [3] was “+ (5-10%: = +)”. For the same compound, the “Cell death, BT20” value [4] was “+ (5-10%: = +)”.
In the case of `O=[N+]([O-])c1ccc(/C=C/S(=O)(=O)Cc2ccc(Cl)cc2)cc1` [Example 38, (E)-4-nitrostyryl-4-chlorobenzylsulfone], the “Cell death, DU145” value [1] is reported as “++++ (50-60% = ++++)”, the “Cell death, DLD-1” value [2] is reported as “++++ (50-60% = ++++)” and the “Cell death, H157” value [3] is reported as “++++ (50-60% = ++++)”. The “Cell death, BT20” value [4] was “++++ (50-60% = ++++)”.
In the case of `O=[N+]([O-])c1ccccc1/C=C/S(=O)(=O)Cc1ccc(Br)cc1` [Example 46, (E)-2-nitrostyryl-4-bromobenzylsulfone], the “Cell death, DU145” value [1] is reported as “+ (5-10%: = +)”, the “Cell death, DLD-1” value [2] is reported as “+ (5-10%: = +)” and the “Cell death, H157” value [3] is reported as “+ (5-10%: = +)”. The “Cell death, BT20” value [4] was “+ (5-10%: = +)”.
In the case of `COc1ccc(CS(=O)(=O)/C=C/c2ccc(Br)cc2)cc1` [Example 62, (E)-4-bromostyryl-4-methoxybenzylsulfone], the “Cell death, DU145” value [1] is reported as “++++ (50-60% = ++++)”, the “Cell death, DLD-1” value [2] is reported as “++++ (50-60% = ++++)” and the “Cell death, H157” value [3] is reported as “++++ (50-60% = ++++)”. For the same compound, the “Cell death, BT20” value [4] was “++++ (50-60% = ++++)”.
With `COc1ccc(CS(=O)(=O)/C=C/c2ccc(F)cc2)cc1` [Example 60, (E)-4-fluorostyryl-4-methoxybenzylsulfone] the “Cell death, DU145” value [1] was “+++++ (Above 80% = +++++)”, the “Cell death, DLD-1” value [2] was “+++++ (Above 80% = +++++)” and the “Cell death, H157” value [3] was “+++++ (Above 80% = +++++)”. For the same compound, the “Cell death, BT20” value [4] was “+++++ (Above 80% = +++++)”.
With “(E)-4-trifluoromethylstyryl-4-bromoyanobenzylsulfone [Example 51]” the “Cell death, DU145” value [1] was “+ (5-10%: = +)”, the “Cell death, DLD-1” value [2] was “+ (5-10%: = +)” and the “Cell death, H157” value [3] was “+ (5-10%: = +)”. For the same compound, the “Cell death, BT20” value [4] was “+ (5-10%: = +)”.
`O=[N+]([O-])c1ccc(CS(=O)(=O)/C=C/c2ccc(F)cc2)cc1` [Example 67, (E)-4-fluorostyryl-4-nitrobenzylsulfone] was tested, and the “Cell death, DU145” value [1] was “+ (5-10%: = +)”, the “Cell death, DLD-1” value [2] was “+ (5-10%: = +)” and the “Cell death, H157” value [3] was “+ (5-10%: = +)”. The “Cell death, BT20” value [4] was “+ (5-10%: = +)”.
`Cc1cc(/C=C/S(=O)(=O)Cc2ccc(Cl)cc2)ccc1F` [Example 43, (E)-3-methyl-4-fluorostyryl-4-chlorobenzylsulfone] was tested, and the “Cell death, DU145” value [1] was “+ (5-10%: = +)”, the “Cell death, DLD-1” value [2] was “+ (5-10%: = +)” and the “Cell death, H157” value [3] was “+ (5-10%: = +)”. For the same compound, the “Cell death, BT20” value [4] was “+ (5-10%: = +)”.
For `O=[N+]([O-])c1ccccc1/C=C/S(=O)(=O)Cc1ccc(F)cc1` [Example 29, (E)-2-nitrostyryl-4-fluorobenzylsulfone], the “Cell death, DU145” value [1] was “+ (5-10%: = +)”, the “Cell death, DLD-1” value [2] was “+ (5-10%: = +)” and the “Cell death, H157” value [3] was “+ (5-10%: = +)”. For the same compound, the “Cell death, BT20” value [4] was “+ (5-10%: = +)”.
With `O=S(=O)(/C=C/c1ccc(F)cc1)Cc1ccc(I)cc1` [Example 19, (E)-4-Fluorostyryl-4-iodobenzylsulfone] the “Cell death, DU145” value [1] was “+++++ (Above 80% = +++++)”, the “Cell death, DLD-1” value [2] was “+++++ (Above 80% = +++++)” and the “Cell death, H157” value [3] was “+++++ (Above 80% = +++++)”. For the same compound, the “Cell death, BT20” value [4] was “+++++ (Above 80% = +++++)”.
In the case of `O=S(=O)(/C=C/c1ccc(Br)cc1)Cc1ccc(C(F)(F)F)cc1` [Example 3, (E)-4-Bromostyryl-4-trifluoromethylbenzylsulfone], the “Cell death, DU145” value [1] is reported as “+ (5-10%: = +)”, the “Cell death, DLD-1” value [2] is reported as “+ (5-10%: = +)” and the “Cell death, BT20” value [4] is reported as “++ (10-15% = ++)”.
With `O=S(=O)(/C=C/c1ccc(Br)cc1)Cc1ccc(Cl)c(Cl)c1` [Example 8, (E)-4-Bromostyryl-3,4-dichlorobenzylsulfone] the “Cell death, DU145” value [1] was “− (0% = −)”, the “Cell death, DLD-1” value [2] was “− (0% = −)” and the “Cell death, BT20” value [4] was “− (0% = −)”.
